ChEMBL document CHEMBL4229367, “Identification of multi-target inhibitors of leukotriene and prostaglandin E2 biosynthesis by structural tuning of the FLAP inhibitor BRP-7” (Eur J Med Chem, 2018)
pIC50: −log10 of the molar value.

Tests used:
[1] = target: T1, Arachidonate 5-lipoxygenase-activating protein (Homo sapiens) (UniProt P20292); assay: Inhibition of FLAP in A23187-stimulated human neutrophils assessed as remaining enzyme activity by measuring 5-LO product formation at 0.1 uM preincubated for 15 mins followed by A23187 and arachidonic acid addition and measured after 10 mins by UV based RP-HPLC analysis (reference value: 100%)
T1 sequence (whole entry): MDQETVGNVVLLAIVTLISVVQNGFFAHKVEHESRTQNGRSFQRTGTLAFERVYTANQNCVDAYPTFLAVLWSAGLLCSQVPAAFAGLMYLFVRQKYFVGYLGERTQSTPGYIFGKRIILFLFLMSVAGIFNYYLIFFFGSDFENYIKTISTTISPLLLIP

[2] = target: T1, Arachidonate 5-lipoxygenase-activating protein (Homo sapiens); assay: Inhibition of FLAP in A23187-stimulated human neutrophils assessed as remaining enzyme activity by measuring 5-LO product formation at 1 uM preincubated for 15 mins followed by A23187 and arachidonic acid addition and measured after 10 mins by UV based RP-HPLC analysis (reference value: 100%)
[3] = target: T2, Arachidonate 5-lipoxygenase-activating protein (Homo sapiens, UniProt P20292); assay: Inhibition of FLAP in A23187-stimulated human neutrophils assessed as reduction in 5-LO product formation preincubated for 15 mins followed by A23187 and arachidonic acid addition and measured after 10 mins by UV based RP-HPLC analysis
T2 sequence (P20292 whole entry): T1 sequence (whole entry)

[4] = target: T2, Arachidonate 5-lipoxygenase-activating protein; assay: Inhibition of FLAP in A23187-stimulated human monocytes assessed as reduction in 5-LO product formation preincubated for 15 mins followed by A23187 and arachidonic acid addition and measured after 10 mins by UV based RP-HPLC analysis; assay type: cell-based
[5] = target: T3, Polyunsaturated fatty acid 5-lipoxygenase (Homo sapiens, UniProt P09917); assay: Inhibition of 5-LO in A23187-stimulated human neutrophils assessed as reduction in 5-LO product formation preincubated for 15 mins followed by A23187 and 10 uM arachidonic acid addition and measured after 10 mins by UV based RP-HPLC analysis
T3 sequence (P09917 whole entry): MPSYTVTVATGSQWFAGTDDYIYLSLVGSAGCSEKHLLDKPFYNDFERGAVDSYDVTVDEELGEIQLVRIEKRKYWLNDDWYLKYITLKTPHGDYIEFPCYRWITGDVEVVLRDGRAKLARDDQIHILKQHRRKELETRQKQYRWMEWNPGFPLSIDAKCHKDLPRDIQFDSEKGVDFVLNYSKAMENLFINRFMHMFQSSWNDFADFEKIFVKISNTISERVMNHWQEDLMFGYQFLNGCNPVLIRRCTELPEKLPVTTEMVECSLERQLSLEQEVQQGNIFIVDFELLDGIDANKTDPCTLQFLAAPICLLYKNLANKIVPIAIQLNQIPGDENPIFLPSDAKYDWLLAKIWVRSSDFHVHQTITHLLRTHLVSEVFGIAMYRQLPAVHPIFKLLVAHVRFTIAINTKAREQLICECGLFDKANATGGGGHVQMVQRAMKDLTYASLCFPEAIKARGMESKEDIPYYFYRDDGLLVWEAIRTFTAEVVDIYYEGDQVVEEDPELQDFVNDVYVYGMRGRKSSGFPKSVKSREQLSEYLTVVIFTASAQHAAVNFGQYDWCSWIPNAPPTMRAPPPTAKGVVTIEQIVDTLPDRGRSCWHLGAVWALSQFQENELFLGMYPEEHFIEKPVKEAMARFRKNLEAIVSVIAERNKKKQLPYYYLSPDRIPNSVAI

[6] = target: T4, Leukotriene C4 synthase (Homo sapiens, UniProt Q16873); assay: Inhibition of LTC4 synthase in LPS/fMLP-stimulated human monocytes assessed as decrease in cys-LT formation pre-incubated with LPS for 30 mins and later stimulated with fMLP for 10 mins by ELISA; assay type: cell-based
T4 sequence (Q16873 whole entry): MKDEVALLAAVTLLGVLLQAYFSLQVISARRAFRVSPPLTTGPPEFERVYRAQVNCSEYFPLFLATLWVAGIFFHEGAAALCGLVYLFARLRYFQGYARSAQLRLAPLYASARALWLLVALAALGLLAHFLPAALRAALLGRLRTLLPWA

[7] = target: T5, Polyunsaturated fatty acid 5-lipoxygenase (Homo sapiens) (UniProt P09917); assay: Inhibition of recombinant human 5-LO expressed in Escherichia coli BL21 at 10 uM incubated for 15 mins prior to prewarming for 30 secs followed by CaCl2+ and arachidonic acid addition and measured after 10 mins by RP-HPLC analysis
T5 sequence (whole entry): T3 sequence (P09917 whole entry)

[8] = target: T6, Prostaglandin E synthase (Homo sapiens) (UniProt O14684); assay: Inhibition of mPGES1 in IL-1beta-stimulated human A549 cell microsomal fractions assessed as reduction in PGE2 production at 3 uM preincubated for 15 mins followed by PGH2 substrate addition and measured after 1 min by RP-HPLC analysis relative to control
T6 sequence (whole entry): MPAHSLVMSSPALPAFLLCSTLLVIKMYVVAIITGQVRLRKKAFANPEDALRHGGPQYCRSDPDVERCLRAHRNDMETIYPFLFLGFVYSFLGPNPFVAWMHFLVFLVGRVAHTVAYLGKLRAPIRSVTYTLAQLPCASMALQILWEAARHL

`CC(C)Cc1ccc(C(C)c2nc3cc(CCC(=O)O)ccc3n2Cc2ccccc2Cl)cc1` (stereo not drawn) showed an Activity [1] of 32.1%, an Activity [2] of 0% and a pIC50 [3] of 7.30. The pIC50 [4] was 7.15, the pIC50 [5] was 7.22 and the pIC50 [6] was 7.52. For the same molecule, the inhibition [7] was 26% and the inhibition [8] was over 50%.
